Source: patent US9567300B2, “Hexahydropentaleno derivatives, preparation method and use in medicine thereof” (SUNSHINE LAKE PHARMA CO., LTD., priority 2012, dated 2017)

Assays:
[1] = biological target: T1, DPP-IV (Homo sapiens, UniProt P27487); assay: Active inhibition DPP-IV assay (Gly-Pro-AMC substrate, fluorescence); type: biochemical; settings: Gly-Pro-AMC 10 μM, 25 mM Tris pH 8.0
T1 construct: purchased R&D 1180-SE
Description: (§1) The following methods were used for testing the inhibitive action of the compound disclosed herein against DPP-IV, DPP-8 and DPP-9 enzymatic activity. The inhibitive ability of the compound disclosed herein against enzymatic activity of DPP-IV, DPP-8 and DPP-9 was tested. The measurements of the inhibition ratio or the 50% inhibiting concentration IC50 of every compound were based on a fixed quantity of enzyme-substrate mixtures and different concentrations of the test compounds.
DPP-IV enzyme was purchased from R&D, Catalog No. 1180-SE.
(§2) The test compound was dissolved in an appropriate amount of DMSO to prepare 100 mM mother liquor, which was divided into EP tubes and preserved at −20° C. The mother liquor was diluted with an assay buffer to prepare solutions with required concentrations. Sample solutions with different concentrations (4 μL) and certain concentration of DPP-IV (DPP-8 or DPP-9) solution (4 μL) were added into 384-well plates in turn. Referred to the instruction manual, Gly-Pro-AMC was selected as a substrate and the concentration thereof was 10 μM. The 16 mM mother liquor was prepared from the substrate and preserved at −20° C. for use. The 16 mM mother liquor was diluted with an assay buffer to a solution of known concentration. The assay buffer of DPP-IV was 25 mM Tris, and its pH was 8.0. The assay buffers of DPP-8 and DPP-9 were 50 mM Tris, and their pH was 7.5. The substrate mother liquor was diluted with an assay buffer, and the mixture (4 μL) was added into 384-well plates to prepare final solution concentration. The whole process was carried out in an ice bath. After the addition of the components of the assay system was completed, the system was centrifuged. The supernatant was then transferred to an Infinite F200 multifunctional microplate reader, and 20 fluorescence values were recorded every 30 sec. And then Slope (V0) was calculated directly by the software of microplate reader, fetching the data in the linear range. The measured reaction rate and the corresponding inhibition concentration were analyzed. Percent inhibition is I(%)=(V0−Vi)/V0×100%. Vi represents the initial reaction rate at different inhibition concentrations. V0 represents the initial reaction rate without inhibitor. Vi/V0 represents the inhibition level of inhibitor. Relevant curve chart was made with inhibition concentration as a horizontal coordinate and the value of Vi/V0 as a vertical coordinate. The IC50 values were calculated by Graph Pad Prism statistical analysis software.

[2] = biological target: T2, DPP-8 (Homo sapiens, UniProt Q6V1X1); assay: Active inhibition DPP-8 assay (Gly-Pro-AMC substrate, fluorescence); type: biochemical; settings: Gly-Pro-AMC 10 μM, 50 mM Tris pH 7.5
T2 construct: purchased Biomol SE-827
Description: as §1
DPP-8 enzyme was purchased from Biomol, Catalog No. SE-827.
as §2

[3] = biological target: T3, DPP-9 (Homo sapiens, UniProt Q86TI2); assay: Active inhibition DPP-9 assay (Gly-Pro-AMC substrate, fluorescence); type: biochemical; settings: Gly-Pro-AMC 10 μM, 50 mM Tris pH 7.5
T3 construct: purchased Bioscience 80090
Description: as §1
DPP-9 enzyme was purchased from Bioscience, Catalog No. 80090.
as §2

[4] = test system: normal C57BL/6 mice; assay: Effects of DPP-IV inhibitors on the blood glucose of normal C57BL/6 mice (oral glucose tolerance); type: in vivo; settings: oral 5 mg/kg; for Nor-sugar rate % (5 mg/kg): male C57BL/6 mice, glucose 2.5 g/kg by gavage 30 min after administration
Description: The effects of the test compounds on the oral glucose tolerance of normal C57BL/6 mice were observed, and the hypoglycemic activities of these compounds in vivo were evaluated preliminarily.
Preparation procedure: Drugs were accurately weighed, and 5 mg of compounds of examples 3, 9 15, 16 and 17 were dissolved respectively in 20 mL of normal saline to obtain 0.25 mg/mL solutions.
Administrated Dose: The oral dose was 5 mg/kg and the gavage dose was 0.02 mL/g.
Test Method: The normal male C57BL/6 mice were grouped randomly into a blank control group, a positive control group, and treatment groups having 7 mice each group.
Administration and Serum Glucose Determination: C57BL/6 mice of each group were fasted for 18 hours before the experiment. The blood was drawn from the caudal vein of the mice and the glucose level was measured by using a blood-glucose meter. After detection, 0.25 mg/mL of positive control, 0.25 mg/mL of examples 3, 9, 15, 16 and 17 and normal saline were respectively administered to the positive control group, treatment groups and blank control group by intragastric administration. The blood glucose level (0 min) of positive control group was measured in 60 min after administration. The blood glucose levels (0 min) of the other groups were measured in 30 min after administration, and then glucose (2.5 g/kg) was administered to the mice through gavage. The blood was drawn from the caudal vein of the mice in 15 min, 30 min, 45 min, 60 min, 120 min after administration. The blood glucose levels of C57BL/6 mice were measured continuously by blood-glucose meter.
1. Glucose concentration-time curve was plotted, and AUC from 0 to 120 min and hypoglycemic rate of each dosage group at blood glucose peak were calculated.
2. Experimental data were represented in x±SD. The data were analyzed by SPSS 16.0 software. The data were compared between multiple groups using nonparametric Kruskal-Wallis H test method.

T3 sequence (Q86TI2 whole entry): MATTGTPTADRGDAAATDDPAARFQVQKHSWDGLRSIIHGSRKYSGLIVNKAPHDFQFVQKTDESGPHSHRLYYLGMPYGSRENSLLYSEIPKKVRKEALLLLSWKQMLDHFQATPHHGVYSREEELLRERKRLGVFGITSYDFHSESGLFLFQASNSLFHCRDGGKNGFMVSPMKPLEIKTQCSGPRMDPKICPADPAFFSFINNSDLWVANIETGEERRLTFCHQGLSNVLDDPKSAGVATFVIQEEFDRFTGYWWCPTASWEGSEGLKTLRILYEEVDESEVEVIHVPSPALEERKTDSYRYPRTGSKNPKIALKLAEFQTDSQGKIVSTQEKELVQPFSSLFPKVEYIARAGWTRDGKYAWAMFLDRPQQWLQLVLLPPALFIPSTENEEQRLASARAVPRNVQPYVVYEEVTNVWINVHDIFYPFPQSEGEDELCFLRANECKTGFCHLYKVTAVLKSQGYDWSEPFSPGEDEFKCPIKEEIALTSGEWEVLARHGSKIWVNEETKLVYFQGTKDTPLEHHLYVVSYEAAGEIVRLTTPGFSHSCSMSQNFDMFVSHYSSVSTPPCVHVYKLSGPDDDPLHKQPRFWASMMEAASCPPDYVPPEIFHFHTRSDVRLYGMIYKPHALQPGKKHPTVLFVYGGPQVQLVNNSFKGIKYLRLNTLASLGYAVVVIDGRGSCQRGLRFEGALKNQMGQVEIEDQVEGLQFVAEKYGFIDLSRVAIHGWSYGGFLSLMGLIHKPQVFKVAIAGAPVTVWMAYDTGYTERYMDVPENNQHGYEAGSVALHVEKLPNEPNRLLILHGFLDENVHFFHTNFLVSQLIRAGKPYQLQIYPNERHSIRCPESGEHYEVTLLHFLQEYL
T1 sequence (P27487 whole entry): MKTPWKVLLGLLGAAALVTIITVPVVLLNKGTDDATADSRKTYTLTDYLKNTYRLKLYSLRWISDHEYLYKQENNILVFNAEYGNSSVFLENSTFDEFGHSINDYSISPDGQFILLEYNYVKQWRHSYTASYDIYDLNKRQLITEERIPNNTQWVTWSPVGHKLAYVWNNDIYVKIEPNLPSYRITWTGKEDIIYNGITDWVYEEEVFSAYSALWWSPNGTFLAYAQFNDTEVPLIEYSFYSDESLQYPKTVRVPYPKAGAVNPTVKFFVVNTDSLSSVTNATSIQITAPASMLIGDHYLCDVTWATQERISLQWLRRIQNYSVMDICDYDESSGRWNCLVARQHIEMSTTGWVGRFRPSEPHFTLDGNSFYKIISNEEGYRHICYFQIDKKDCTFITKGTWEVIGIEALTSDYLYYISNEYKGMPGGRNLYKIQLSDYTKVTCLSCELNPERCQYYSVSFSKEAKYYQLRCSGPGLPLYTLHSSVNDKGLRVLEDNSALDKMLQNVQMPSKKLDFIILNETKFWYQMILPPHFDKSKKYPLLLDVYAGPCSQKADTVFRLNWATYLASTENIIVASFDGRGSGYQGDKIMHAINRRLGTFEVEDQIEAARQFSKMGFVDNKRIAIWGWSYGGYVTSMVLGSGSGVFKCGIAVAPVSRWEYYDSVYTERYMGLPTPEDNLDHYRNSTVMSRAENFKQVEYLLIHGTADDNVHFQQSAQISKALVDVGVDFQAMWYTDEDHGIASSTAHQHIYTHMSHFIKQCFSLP
T2 sequence (Q6V1X1 whole entry): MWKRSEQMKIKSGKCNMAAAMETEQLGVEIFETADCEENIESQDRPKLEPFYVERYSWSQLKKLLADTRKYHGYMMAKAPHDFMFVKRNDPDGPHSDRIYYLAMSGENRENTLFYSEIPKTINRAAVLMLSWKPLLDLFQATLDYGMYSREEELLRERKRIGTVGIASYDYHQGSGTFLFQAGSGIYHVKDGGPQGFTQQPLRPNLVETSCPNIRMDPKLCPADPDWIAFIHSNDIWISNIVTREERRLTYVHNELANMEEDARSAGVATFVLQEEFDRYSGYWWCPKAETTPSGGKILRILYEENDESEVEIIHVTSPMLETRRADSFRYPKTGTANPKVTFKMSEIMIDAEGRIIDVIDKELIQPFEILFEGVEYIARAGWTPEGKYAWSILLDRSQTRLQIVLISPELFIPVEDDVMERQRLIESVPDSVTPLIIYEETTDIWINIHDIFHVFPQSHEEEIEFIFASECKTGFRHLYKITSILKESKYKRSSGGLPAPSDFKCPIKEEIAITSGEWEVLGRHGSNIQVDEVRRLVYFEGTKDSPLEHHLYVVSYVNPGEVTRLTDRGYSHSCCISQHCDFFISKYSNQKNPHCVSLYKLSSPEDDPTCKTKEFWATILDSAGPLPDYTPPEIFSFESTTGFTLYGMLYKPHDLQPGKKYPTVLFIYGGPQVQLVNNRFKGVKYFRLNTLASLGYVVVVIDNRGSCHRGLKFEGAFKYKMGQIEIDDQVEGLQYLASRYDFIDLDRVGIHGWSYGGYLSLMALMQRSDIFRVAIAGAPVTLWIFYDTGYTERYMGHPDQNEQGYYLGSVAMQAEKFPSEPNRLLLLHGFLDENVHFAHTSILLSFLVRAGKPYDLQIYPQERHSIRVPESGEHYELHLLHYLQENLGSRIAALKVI

Row | SMILES | IC50 [1] [nM] | IC50 [2] [nM] | IC50 [3] [nM] | Nor-sugar rate % (5 mg/kg) [4] [%] | hypoglycemic activities for C57BL/6 mice ([4]; conclusion in words)
1 | C[C@@]1(NCC(=O)N2C[C@@H](F)C[C@H]2C#N)C[C@H]2CC(C#N)C[C@H]2C1 (stereo partly drawn) [Example 15, (2S,4S)-1-(2-(((2s,3aR,6aS)-5-cyano-2-methyloctahydropentalen-2-yl)amino)acetyl)-4-fluoropyrrolidine-2-carbonitrile] | 1.56 | 1260 | 20 | 24.72 | good hypoglycemic activities
2 | C[C@@]1(NCC(=O)N2C[C@@H](F)C[C@H]2C#N)C[C@H]2C[C@@H](O)C[C@H]2C1 [Example 3, (2S,4S)-4-fluoro-1-(2-(((2r,3aR,5S,6aS)-5-hydroxy-2-methyloctahydropentalen-2-yl)amino)acetyl)pyrrolidine-2-carbonitrile] | 2.49 | 3920 | 93 | 35.96 | –
